# Assay results reported in patent US11679099B2, “Use of HIF-2α inhibitors for treating chondrosarcoma, or preventing recurrence and metastasis thereof” (SEOUL NATIONAL UNIVERSITY R&DB FOUNDATION, priority 2020, dated 2023).
# Entries after “also recorded” stand apart in the source; their conditions may differ.
# How the values were obtained:
# SW1353 tumors = assay: Adjuvant chemotherapy in orthotopic chondrosarcoma xenograft model; format: in vivo, athymic nude mice (BALB/c nu/nu); conditions: mice, i.p., 2 mg/kg cisplatin and/or 20 mg/kg TC-S7009, twice weekly for four weeks
# Source text: FIG. 5G is a schematic diagram of combination chemotherapy with TC-S7009. Mice were intraperitoneally injected 8 times with DMSO, cisplatin, TC-S7009, or cisplatin plus TC-S7009, twice a week from two weeks following the orthotopic xenograft (n=5).
# Mice and experimental systems. Female athymic nude mice (BALB/c nu/nu, 5 weeks old) were purchased from Daehan-Biolink Co. and housed in individually ventilated cages. Mice were maintained under pathogen-free conditions. Food and water were provided after their sterilization. For in vivo experiments, at least five mice per experimental condition were used. Animals were randomly allocated to each experimental group, and the treatment allocation was blinded. In the orthotopic injection model, SW1353 cells were trypsinized and resuspended in PBS after centrifugation. The number of cells was adjusted to 1×10^6 cells per 25 μl. For SW1353 cells that stably overexpressed eGFP or HIF-2α, cell number was adjusted to 1×10^5 cells per 25 μl. Cells were mixed with 25 μl of Geltrex (Thermo Fisher Scientific, Geltrex™ LDEV-Free Reduced Growth Factor Basement Membrane Matrix). Before the procedure, mice were anesthetized. Skin was incised using a scalpel, and a single 0.35-mm diameter hole was drilled through the cartilage of the upper right tibia with the aid of sterile H-files (MANI, 28 mm #70). Subsequently, 10 μl of cell mixture was slowly injected with a 30-gauge microsyringe needle through the hole. The hole was sealed using surgical wax, and the surgery site was extensively rinsed with sterile PBS to wash out any spilled cell mixture. As the last step of the surgical procedure, the cutaneous wound was sutured. After the chosen experimental periods, mice were sacrificed, and total hindlimbs were dissected. For lung specimens, PBS was instilled through the trachea, and all specimens were processed for histomorphometric and immunohistochemical analysis. For the adjuvant chemotherapy studies, two weeks after the orthotopic injection of chondrosarcoma cells, mice were injected intraperitoneally with or without 2 mg/kg cisplatin in the presence or absence of 20 mg/kg TC-S7009 (Tocris) dissolved in Kolliphor EL (castor oil, 10% v/v, Sigma Aldrich, C5135). Vehicle solution was composed of DMSO, PBS, and Kolliphor EL (10% v/v). Chemotherapy cocktails were administered to mice twice weekly for four weeks.
# SW1353 cells [1] = assay: Apoptosis analysis, Annexin-V/PI flow cytometry; format: cell-based, human; conditions: 10 μM TC-S7009 pretreatment 48 h and/or 5 μg/ml cisplatin 24 h
# Procedure: Drug Interaction Studies. For analysis of combination index (CI), SW1353 cells were pretreated with vehicle, 10 μM Nutlin-3a, 10 μM ABT-888, or 10 μM TC-S7009 for 48 h and additionally treated with 0.2, 0.5, 1, 2, or 5 μg/ml cisplatin or left untreated for 72 h. Cell viability was measured by the MTT assay. CI was calculated using the Compusyn software version 1.0, and synergistic effects were determined by the Chou-Talalay method (Chou T C. Drug Combination Studies and Their Synergy Quantification Using the Chou-Talalay Method. Cancer Res. 2010; 70(2):440-446). Drug combination at a non-constant ratio was used to calculate CI. For apoptosis analysis, SW1353 cells were pretreated with vehicle, 10 μM Nutlin-3a, 10 μM ABT-888, or 10 μM TC-S7009 for 48 h and additionally treated with 5 μg/ml cisplatin for 24 h. Subsequently, cells were stained with the Annexin V-FITC Apoptosis Detection Kit (Sigma Aldrich, APOAF) according to manufacturer's protocol. Flow cytometry analysis was performed on a FACSCanto II flow cytometer (BD Biosciences).
# SW1353 cells [2] = assay: Migration assay; format: cell-based, human; conditions: 10 μM TC-S7009 vs DMSO
# Source text: (§1) (A) SW1353 cells were co-transfected with pcDNA3 or pcDNA3-EPAS1 and the HRE containing reporter plasmid in the absence or presence of different doses of TC-S7009. HRE reporter activity was normalized to Renilla luciferase activity (n=5). (B) Trypan blue exclusion assay to test the effect of TC-S7009 on cell viability of SW1353 cells (n=3). (C) Colony formation assay of SW1353 cells in the absence or presence of different doses of TC-S7009. The number of colonies counted using the ImageJ software (n=5). (D) Migration assay performed using SW1353 cells treated with DMSO or 10 μM TC-S7009. Representative images are shown (Left), and the relative area of migration (Right) was determined using the Image-Pro Premier software (n=6). (Scale bar, 200 μm.) Values indicate the mean±SEM, ***P<0.001, N.S., not significant, ANOVA (A-C) and Student's t test (D). P values; N.S.=non-significant, ***P<0.001. HRE=hypoxia response element; P=P value.
# Migration assay. SW1353 and OUMS-27 cells were cultured in a 6-well plate at a density of 5×10^5 cells per well. When cells achieved 90% confluence, a wound was made with a sterile yellow tip. Cells were washed with PBS three times and incubated in fresh media with 1% FBS for 36 h. Every 12 h, randomly selected fields were captured by a digital camera under a microscope.
# SW1353 cells [3] = assay: Gelatin degradation assay; format: cell-based, human; conditions: 10 μM TC-S7009 vs DMSO
# Procedure: Gelatin degradation assay. SW1353 cells were seeded on coverslips coated with Oregon Green 488-conjugated gelatin (Life Technologies) at 4×10^4 cells per well. Briefly, coverslips were treated with 50 μg/ml poly-D-Lysine (Corning) for 20 min followed by 0.5% glutaraldehyde (Junsei Chemical) for 15 min on ice. Treated coverslips were coated at 37° C. with pre-warmed 200 μg/ml Oregon Green 488-conjugated gelatin for 10 min in the dark, treated with 5 mg/ml NaBH4 for 15 min, and extensively washed with 70% ethanol and PBS. Cells were incubated for 18 h after seeding. For imaging gelatin degradation, cells were fixed with 50% methanol (v/v) and 10% acetic acid (v/v) solution for 10 min and stained with DAPI. For each coverslip, three fields were imaged at 20× magnification using a fluorescence microscope (EVOS FL Cell Imaging System, Thermo Fisher Scientific). To quantify gelatin degradation, the area of degradation in each field was measured by color-thresholding, using the ImageJ software.
# SW1353 cells [4] = assay: Colony formation assay; format: cell-based, human; conditions: 10 μM or different doses of TC-S7009 vs DMSO
# Procedure: FIG. 5D is the results of colony formation (P<0.001, n=5) assays using SW1353 cells treated with DMSO or 10 μM TC-S7009 assay using SW1353 cells treated with DMSO or 10 μM TC-S7009. The representative images and quantification results were shown.
# as §1
# Colony formation assay. SW1353 cells were suspended in DMEM supplied with 10% FBS and seeded in 6-well plates; 1×10^3 and 500 cells were seeded in each well for the knockdown and overexpression experiments, respectively. […]
# SW1353 cells [5] = assay: Sphere formation assay; format: cell-based, human; conditions: 10 μM TC-S7009 vs DMSO
# Procedure: FIG. 5C is the results of sphere formation (n=3) assays using SW1353 cells treated with DMSO or 10 μM TC-S7009 assay using SW1353 cells treated with DMSO or 10 μM TC-S7009. The representative images were shown and the diameter of the spheres were measured. Box-whisker plot were used to present the data. Scale Bar=200 μm.
# Sphere formation assay. SW1353 and OUMS-27 cells were suspended in DMEM-F12 medium supplemented with 2% of B27 supplement (Thermo Fisher Scientific), 20 ng/ml EGF (Invitrogen), and 20 ng/ml basic fibroblast growth factor (bFGF; Peprotech). For experiments using SW1353 cells overexpressing eGFP or HIF-2α, cells were suspended in DMEM-F12 medium in the absence of the above supplements. Cells were then seeded in 24-well Ultra-low attachment plates (Corning) at a density of 1×10^4 cells per well. Four days later, fresh medium was added in each well. Seven days later, spheres were analyzed by the sphere diameter and the number of spheres larger than 50 μm (Axio Observer Z1, Zeiss). In relation to the diameter of the spheres, three representative fields per well were imaged, and diameters were measured using the AxioVision software (Zeiss): the three longest diameters per image field for each group were recorded. The distribution of the sphere diameters was plotted using the notched Box-and-Whisker plot originally invented by Tukey. […]
# SW1353 cells [6] = assay: Trypan blue exclusion assay (cell viability); format: cell-based, human
# Source text: as §1
# HIF-2α [7] = target: T1, HIF-2α (Homo sapiens, UniProt Q99814); assay: HRE reporter gene (luciferase) assay; format: cell-based; conditions: SW1353 cells co-transfected with pcDNA3-EPAS1 and HRE reporter; different doses of TC-S7009, 24 h
# T1 construct: host or cells: SW1353 cells
# Procedure: (A) SW1353 cells were co-transfected with pcDNA3 or pcDNA3-EPAS1 and the HRE containing reporter plasmid in the absence or presence of different doses of TC-S7009. HRE reporter activity was normalized to Renilla luciferase activity (n=5). […] (Scale bar, 200 μm.) Values indicate the mean±SEM, ***P<0.001, N.S., not significant, ANOVA (A-C) and Student's t test (D).
# Luciferase assay. HIF-2α activity was determined by reporter gene assay. SW1353 cells were transfected with 1 μg of a reporter vector containing hypoxia responsive element repeats. The thymidine kinase promoter-Renilla luciferase reporter plasmid (pRL-TK) was used as a control for measuring transfection efficiency. […] Twenty-four hours after transfection, cells were treated with TC-S7009 for an additional 24 h. Luciferase activity was measured using luciferin and normalized by Renilla luciferase activity.
# SW1353 cells [8] = assay: Transwell invasion assay; format: cell-based, human; conditions: 10 μM TC-S7009 vs DMSO
# Procedure: FIG. 5A is the results of Transwell invasion (n=3) assay using SW1353 cells treated with DMSO or 10 μM TC-S7009. Representative images were shown, the invaded cells were calculated on the random image fields and normalized to the cells treated with DMSO. Scale Bar=200 μm.
# Transwell invasion assay. The invasion assay was performed using Transwell (BD Falcon, pore size, 8 μm, PET) in 24-well plates. Filters were coated with 20 μg of Geltrex (Thermo Fisher Scientific) in 20 μl of serum-free DMEM and dried for 4 h in a sterile environment. Prior to the invasion assay, SW1353 and OUMS-27 cells were starved for 12 h in serum-free DMEM. Immediately before seeding the cells, the dried transwells were rehydrated with 25 μl of serum-free DMEM for 1 h at 37° C. Starved cells were trypsinized, centrifuged, and resuspended in serum-free DMEM. Approximately 1×10^5 cells in 200 μl of serum-free DMEM were placed in each transwell and 2 ml of DMEM supplemented with 10% FBS was placed in each 24-well plate. The plates were incubated for 48 h at 37° C., fixed in 4% paraformaldehyde for 2 min, permeabilized in 100% methanol for 20 min, and stained with 0.1% crystal violet in 10% ethanol for 20 min. Cells on the upper side of the transwell were removed with cotton-tipped swabs. […] Image fields were randomly chosen, and invading cells were counted using the ImageJ software (National Institutes of Health).
# HIF-2α [9] = assay: siRNA knockdown of HIF-2α in SW1353 cells; format: cell-based, human; conditions: SW1353 cells transfected with siRNA
# Procedure: Cell culture. Chondrosarcoma cell lines SW1353 and OUMS-27 were purchased from ATCC and JCRB Cell Bank, respectively, maintained in 3% O2 at 37° C., and cultured in DMEM (WelGENE Inc., LM001-05) supplemented with 10% FBS (Gibco, 26140079) and 1% antibiotics. For the selection of stable cell lines, 1×10^3 cells were seeded in 100 mm dishes and incubated for approximately two weeks until colonies became visible, and they were supplied with fresh media every three days. Visible colonies were individually isolated using cloning rings. Single colony-forming cells were trypsinized, seeded into 24-well plates, and gradually expanded to 100 mm dishes. Transfection was performed with METAFECTENE PRO (Biontex, T040) according to the manufacturer's protocol. All siRNAs were purchased from Bioneer. All cell lines were tested and authenticated using short-tandem repeat (STR) profiling by the Korean Cell Line Bank and were free of mycoplasma contamination. None of the cell line stocks used in this study was found in the database of commonly misidentified cell lines listed by ICLAC.
# Microarray. SW1353 cells (3×10^5) were transfected with control, HIF1A, or EPAS1 siRNAs. Three biological replicates were used for each group. cDNA was synthesized using the GeneChip WT (Whole Transcript) Amplification kit as described by the manufacturer. […]
# T1 sequence (Q99814 whole entry): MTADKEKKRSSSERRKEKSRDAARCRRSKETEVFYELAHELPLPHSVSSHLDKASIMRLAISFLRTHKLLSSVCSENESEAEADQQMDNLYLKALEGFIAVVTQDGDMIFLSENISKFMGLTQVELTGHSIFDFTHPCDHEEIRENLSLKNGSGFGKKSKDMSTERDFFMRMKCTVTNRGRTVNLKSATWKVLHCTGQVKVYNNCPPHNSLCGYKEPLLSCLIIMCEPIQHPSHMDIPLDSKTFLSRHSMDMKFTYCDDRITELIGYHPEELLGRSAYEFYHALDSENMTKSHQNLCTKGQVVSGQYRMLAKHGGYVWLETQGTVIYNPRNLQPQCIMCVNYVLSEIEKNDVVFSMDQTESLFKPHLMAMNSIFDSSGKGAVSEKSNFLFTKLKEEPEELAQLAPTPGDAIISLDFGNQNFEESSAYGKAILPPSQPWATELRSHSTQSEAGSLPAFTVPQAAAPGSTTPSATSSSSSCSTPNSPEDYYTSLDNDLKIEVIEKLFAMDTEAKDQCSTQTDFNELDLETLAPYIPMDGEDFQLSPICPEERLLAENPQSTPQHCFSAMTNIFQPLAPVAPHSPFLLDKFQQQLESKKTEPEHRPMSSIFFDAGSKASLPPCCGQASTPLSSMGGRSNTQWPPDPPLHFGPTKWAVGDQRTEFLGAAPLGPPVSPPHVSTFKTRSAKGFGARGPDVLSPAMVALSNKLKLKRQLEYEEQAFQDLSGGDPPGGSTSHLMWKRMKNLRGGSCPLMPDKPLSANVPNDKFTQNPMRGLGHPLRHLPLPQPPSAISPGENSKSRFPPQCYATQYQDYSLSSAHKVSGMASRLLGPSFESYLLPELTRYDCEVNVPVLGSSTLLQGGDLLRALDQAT
Compound,extraosseous outgrowth of primary tumor (SW1353 tumors),pulmonary (lung) metastasis (SW1353 tumors),apoptotic cells (Annexin-V and PI positive populations) (SW1353 cells [1]),migration ability (SW1353 cells [2]),matrix-degrading activity (gelatin degradation) (SW1353 cells [3]),clonogenicity (colony formation) (SW1353 cells [4]),sphere formation (SW1353 cells [5]),cytotoxicity / cell viability (SW1353 cells [6]),transcriptional activity of HIF-2α (HRE reporter activity) (HIF-2α [7]),invasive phenotypes (transwell invasion) (SW1353 cells [8]),expression of HIF-2α at the cellular level (HIF-2α [9])
"N.N.[Cl][Pt][Cl] [Cisplatin, cisplatin]",mild-to-moderate reduction,mild-to-moderate reduction,mild increase,–,–,–,–,–,–,–,–
"O=[N+]([O-])c1c(Nc2cc(F)cc(Cl)c2)ccc2nonc12 [TC-S7009, N-(3-Chloro-5-fluorophenyl)-4-nitro-2,1,3-benzoxadiazol-5-amine]",mild-to-moderate reduction,mild-to-moderate reduction,did not noticeably affect cell death,without affecting,effectively blocked,effectively blocked,effectively blocked,without any apparent cytotoxicity; also recorded: without affecting,effectively abolished; also recorded: effectively blocks,effectively blocked,–
"EPAS1 siRNA: siRNA for HIF-2α, sense and antisense SEQ ID Nos: 3 and 4 with dTdT overhang (sense ACUACGUCCUGAGUGAGAUDTDT; antisense AUCUCACUCAGGACGUAGUDTDT; dTdT overhangs, chemistry not fully specified)",–,–,–,–,–,–,–,–,–,–,effectively suppress
